Results published in patent US20250197425A1, “2,6,9-TRISUBSTITUTED PURINES” (ASTRAZENECA AB, priority 2022, published 2025).
≈ marks a conversion by molar mass, not a printed value. Read-outs that look alike come from different tables or passages of the source.

What was measured:
[1] = test system: POLR2A Ser2 phosphorylation (CDK9); assay: POLR2A Ser2 phosphorylation imaging assay in MCF-7 cells; assay type: cell-based; conditions: Homo sapiens, MCF7, 2 h, read-out: POLR2A Ser2 phosphorylation IC50
Experimental: Compounds were tested to assess their effect on CDK9 activity in a cellular context. […] During the cell cycle, CDK9 is a component of a multiprotein complex that phosphorylates POLR2A Ser2 which results in transcription elongation.
[…] were fixed by addition of 40 μL/well of 8% paraformaldehyde and incubated for 10 minutes at room temperature. The plates were washed three times with 50 μL/well PBS using a Biotek EL406 plate washer and then permeabilized for 10 minutes at room temperature in 0.3% Triton X100 in PBS. After washing as before, the plates were blocked using 30 μL/well of 2% BSA (w/v) in PBS-T for over 30 minutes at room temperature. […] After washing in PBS as before, leaving each well in 40 μL of PBS, the plates were sealed and imaged on a Cell Insight imaging system (Thermo) with a 10× objective and 2 fields of view per well. POLR2A Ser2levels were normalized to controls and the IC50 values of test compounds determined using Genedata Screener software.

[2] = test system: NPM phosphorylation (Thr199, CDK2-cyclin E complex); assay: NPM phosphorylation imaging assay in MCF-7 cells; assay type: cell-based; conditions: Homo sapiens, MCF7, 2 hours, 4N DNA cells
Experimental: Compounds were tested to assess the effects of CDK2 inhibition in a cellular context. […] During the cell cycle, the CDK2-cyclin E complex phosphorylates NPM at Thr199 which is a prerequisite step for initiation of centrosome duplication.
The cells were fixed by addition of 40 μL/well of 8% paraformaldehyde and incubated at room temperature for 10 minutes. The plates were washed three times with 50 μL/well PBS using a Biotek EL406 plate washer and then permeabilized for 10 minutes at room temperature in 0.3% Triton X100 in PBS. After washing as before, the plates were blocked using 30 μL/well of 2% BSA (w/v) in PBS-T for at least 30 minutes at room temperature. […] Cells containing 4N DNA were selected using the Hoechst staining. Phospho-NPM levels were normalized to controls and the IC50 values of test compounds determined using Genedata Screener software.

[3] = Aqueous thermodynamic solubility, shake-flask; assay type: physicochemical; conditions: aqueous phosphate buffer, 25 °C, pH 7.4, aqueous buffer, thermodynamic from solid, phosphate buffer 0.1 M, pH 7.4, 24 hours
Experimental: The DMSO was evaporated and the dried compounds were equilibrated in glass vials in aqueous phosphate buffer (0.1 M, pH 7.4) for 24 hours at 25° C. under constant stirring. The portion with the dissolved compound was then separated from the remainder through a double centrifugation with a tip wash in between to ensure that no residues of the dried compound were interfering. The solutions were diluted with purified water before quantification using UPLC/MS/MS.

MCF-7 cells = assay: Cellular proliferation EdU assay, MCF-7; assay type: cell-based; conditions: Homo sapiens, MCF7, 48 h, read-out: MCF-7 IC50
Experimental: (§1) Compounds were tested to assess inhibition of cellular proliferation in the breast cancer cell line MCF-7 and the CCNE1-amplified ovarian cell line OVCAR3.
(§2) MCF-7 and OVCAR3 cells in RPMI supplemented with 10% Fetal bovine serum were seeded into 384-well plates (Greiner, Kremsmunster, Austria; 781091), 30 μL/well, using a WellMate. The MCF7 and OVCAR3 cells were seeded at 800 and 1200 cells/well, respectively. Test compounds were added to the wells using an Echo 555 liquid handler and the plates were placed in incubator maintained at 37° C. and 5% CO2 and incubated for two days. On Day 2, an EdU assay was performed following the manufacturer's protocol (Thermo Fisher, C10351). The cells were read on an Acumen eX3 instrument. The IC50 values of test compounds were determined in Genedata by assessing the ratio of signal intensity at 488 nm to the area of signal at 405 nm.

OVCAR3 cells = assay: Cellular proliferation EdU assay, OVCAR3; assay type: cell-based, human; conditions: Homo sapiens, OVCAR-3, 48 h, read-out: OVCAR3 IC50
Experimental: as §1, §2

CDK2:CCNE1 = CDK2:CCNE1 (Homo sapiens (Human), UniProt P24941); assay: NanoBRET assay in MCF-7 cells, CDK2; assay type: cell-based; conditions: transfected MCF-7 cells, 2 hours, n = 1 or average
Experimental: Compounds were tested in breast cancer cell line MCF-7 to assess inhibition of CDK1, CDK2, and CDK4 activity. […] The next day media were evacuated from the wells using the Bluewasher centrifugal plate washer (Bluecatbio) and 10 μL/well phenol red free OptiMEM was then added using a Multidrop Combi. […] Immediately after compound addition, a Tecan HP300 dispensor was used to dispense the relevant NanoBRET™ tracer to the CDK1 wells (12.5 nl, 400 μM, NanoBRET™ TE Tracer K-9), the CDK2 wells (12.5 nl, 200 μM, NanoBRET™ TE Tracer K-9), and the CDK4 wells (8 nl, 100 μM, NanoBRET™ TE Tracer K-7) and the plates were incubated for 2 hours at 37° C. and 5% CO2. […] The plates were incubated in subdued lighting for 10 minutes and then read on a Pherastar FS plate reader (BMG Technologies) using a NanoBRET™ filter module (460±80 nm/610 nm-LP). The ratio values were normalized to controls and the IC50 values of test compounds determined using Genedata Screener software.

CDK4:CCND1 = CDK4:CCND1 (Homo sapiens (Human), UniProt P11802); assay: NanoBRET assay in MCF-7 cells, CDK4; assay type: cell-based; conditions: CDK4 IC50, NanoBRET, transfected MCF-7 cells, 2 hours; n = 1 or average
Experimental: (§3) Compounds were tested in breast cancer cell line MCF-7 to assess inhibition of CDK1, CDK2, and CDK4 activity. MCF-7 cells transiently transfected with CDK1:CCNB1, CDK2:CCNE1, or CDK4:CCND1 were harvested at a density of 1E5 cells/mL in complete media, seeded 20 μL/well into 384-well Greiner 784080 plates using a Multidrop Combi, and incubated overnight at 37° C. and 5% CO2. The next day media were evacuated from the wells using the Bluewasher centrifugal plate washer (Bluecatbio) and 10 μL/well phenol red free OptiMEM was then added using a Multidrop Combi. […] Immediately after compound addition, a Tecan HP300 dispensor was used to dispense the relevant NanoBRET™ tracer to the CDK1 wells (12.5 nl, 400 μM, NanoBRET™ TE Tracer K-9), the CDK2 wells (12.5 nl, 200 μM, NanoBRET™ TE Tracer K-9), and the CDK4 wells (8 nl, 100 μM, NanoBRET™ TE Tracer K-7) and the plates were incubated for 2 hours at 37° C. and 5% CO2. The plates were allowed to cool for 10 minutes at room temperature and 5 μL/well of TE Nano-Glo®Substrate/Inhibitor at 2.4 μM and 1:500 respectively (N2162 Promega) was added. The plates were incubated in subdued lighting for 10 minutes and then read on a Pherastar FS plate reader (BMG Technologies) using a NanoBRET™ filter module (460±80 nm/610 nm-LP). The ratio values were normalized to controls and the IC50 values of test compounds determined using Genedata Screener software.

CDK1:CCNB1 = CDK1:CCNB1 (Homo sapiens (Human), UniProt P06493); assay: NanoBRET assay in MCF-7 cells, CDK1; assay type: cell-based; conditions: CDK1 IC50, NanoBRET, transfected MCF-7 cells, 2 hours; n = 1 or average
Experimental: as §3

Chain of CDK4:CCND1 (P11802 whole entry): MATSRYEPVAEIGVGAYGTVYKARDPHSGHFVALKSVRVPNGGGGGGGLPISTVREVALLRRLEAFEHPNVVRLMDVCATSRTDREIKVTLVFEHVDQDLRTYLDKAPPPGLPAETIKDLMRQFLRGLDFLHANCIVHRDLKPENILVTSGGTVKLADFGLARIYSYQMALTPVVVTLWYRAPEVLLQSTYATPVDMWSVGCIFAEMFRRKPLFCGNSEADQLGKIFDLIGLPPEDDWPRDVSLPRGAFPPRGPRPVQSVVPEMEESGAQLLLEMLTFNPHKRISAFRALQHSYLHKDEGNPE
Chain of CDK4:CCND1 (P24385 whole entry partner): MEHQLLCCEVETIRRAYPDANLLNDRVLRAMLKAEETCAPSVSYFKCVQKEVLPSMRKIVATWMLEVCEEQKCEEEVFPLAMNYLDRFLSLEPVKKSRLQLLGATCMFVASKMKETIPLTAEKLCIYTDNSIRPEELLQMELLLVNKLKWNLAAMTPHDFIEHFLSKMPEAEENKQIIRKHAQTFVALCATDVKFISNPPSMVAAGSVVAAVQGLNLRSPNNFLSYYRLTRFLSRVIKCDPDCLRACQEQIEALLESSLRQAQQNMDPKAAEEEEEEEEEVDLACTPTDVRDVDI
Chain of CDK1:CCNB1 (P06493 whole entry): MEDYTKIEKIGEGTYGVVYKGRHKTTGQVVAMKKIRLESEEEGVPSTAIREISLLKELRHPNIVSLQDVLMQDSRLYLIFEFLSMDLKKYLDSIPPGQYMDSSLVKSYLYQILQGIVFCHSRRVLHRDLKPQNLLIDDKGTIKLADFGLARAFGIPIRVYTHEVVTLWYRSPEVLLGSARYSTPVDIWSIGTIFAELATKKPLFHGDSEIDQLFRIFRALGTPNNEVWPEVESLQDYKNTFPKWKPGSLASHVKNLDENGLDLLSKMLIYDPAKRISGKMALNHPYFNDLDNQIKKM
Chain of CDK1:CCNB1 (P14635 whole entry partner): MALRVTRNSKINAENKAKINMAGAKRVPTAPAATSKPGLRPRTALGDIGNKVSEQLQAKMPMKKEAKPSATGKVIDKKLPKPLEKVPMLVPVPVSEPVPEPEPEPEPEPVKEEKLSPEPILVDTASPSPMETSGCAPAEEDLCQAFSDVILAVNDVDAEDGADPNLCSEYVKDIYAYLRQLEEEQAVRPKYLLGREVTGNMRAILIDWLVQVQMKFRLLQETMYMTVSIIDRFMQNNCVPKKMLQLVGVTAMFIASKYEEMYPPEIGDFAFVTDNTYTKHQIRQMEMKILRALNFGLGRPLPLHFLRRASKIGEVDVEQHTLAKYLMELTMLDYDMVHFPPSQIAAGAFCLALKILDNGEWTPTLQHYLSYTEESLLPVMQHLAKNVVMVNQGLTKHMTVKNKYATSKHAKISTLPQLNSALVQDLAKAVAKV

IC50 ([1]; MCF-7 cells, 2 hours) [nM]	Structure (SMILES)	IC50 [2] [nM]	solubility at 24 h [3] [µM]	IC50 (MCF-7 cells; EdU assay, two days) [nM]	IC50 (OVCAR3 cells; EdU assay, two days) [nM]	IC50 (CDK2:CCNE1) [nM]	IC50 (CDK4:CCND1) [nM]	IC50 (CDK1:CCNB1) [nM]	IC50 [1] [nM]	IC50 (MCF-7 cells) [nM]	IC50 (OVCAR3 cells) [nM]
23600	CC[C@H](Nc1nc(N[C@H]2CCN(S(=O)(=O)N[C@@H]3CCOC3)C2)c2ncn(CC)c2n1)[C@@H](C)O [Example 18, (S)-3-((9-ethyl-2-(((2R,3S)-2-hydroxypentan-3-yl)amino)-9H-purin-6-yl)amino)-N—((R)-tetrahydrofuran-3-yl)pyrrolidine-1-sulfonamide]	–	726 (≈ 350 µg/mL)	–	169	–	–	–	–	–	–
> 30000	CC[C@H](Nc1nc(N[C@H]2CCN(S(=O)(=O)NCC(F)F)C2)c2ncn(CC)c2n1)[C@@H](C)O [Example 5, (S)—N-(2,2-difluoroethyl)-3-((9-ethyl-2-(((2R,3S)-2-hydroxypentan-3-yl)amino)-9H-purin-6-yl)amino)pyrrolidine-1-sulfonamide]	–	> 1000	917	154	–	–	–	–	–	–
–	CCNS(=O)(=O)N1CC[C@H](Nc2nc(N[C@H](CC)[C@H](C)O)nc3c2ncn3CC)C1 [Example 11, (S)—N-ethyl-3-((9-ethyl-2-(((2S,3R)-2-hydroxypentan-3-yl)amino)-9H-purin-6-yl)amino)pyrrolidine-1-sulfonamide]	–	–	3300	1400	–	–	–	> 30000	–	–
–	CCNS(=O)(=O)N1CC[C@H](Nc2nc(N[C@H](CC)C(C)=O)nc3c2ncn3CC)C1 [Example 12, (S)—N-ethyl-3-((9-ethyl-2-(((R)-2-oxopentan-3-yl)amino)-9H-purin-6-yl)amino)pyrrolidine-1-sulfonamide]	–	955 (≈ 419 µg/mL)	–	–	88	> 29700	7480	> 30000	3400	1560
–	CCNS(=O)(=O)N1CC[C@H](Nc2nc(N[C@@H](CC)C(C)=O)nc3c2ncn3CC)C1 [Example 7, (S)—N-ethyl-3-((9-ethyl-2-(((S)-2-oxopentan-3-yl)amino)-9H-purin-6-yl)amino)pyrrolidine-1-sulfonamide]	–	220 (≈ 96.5 µg/mL)	–	–	13	19100	591	24200	486	203
> 30000	CC[C@H](Nc1nc(N[C@H]2CCN(S(=O)(=O)N3CC(F)C3)C2)c2ncn(CC)c2n1)[C@@H](C)O [Example 24, (2R,3S)-3-((9-ethyl-6-(((S)-1-((3-fluoroazetidin-1-yl)sulfonyl)pyrrolidin-3-yl)amino)-9H-purin-2-yl)amino)pentan-2-ol]	–	466 (≈ 219 µg/mL)	2930	856	–	–	–	–	–	–
–	CCNS(=O)(=O)N1CC[C@H](Nc2nc(N[C@H](CC)[C@@H](C)O)nc3c2ncn3CC)C1 (mixture of isomers) [Example 13, (S)—N-ethyl-3-((9-ethyl-2-(((2R,3R)-2-hydroxypentan-3-yl)amino)-9H-purin-6-yl)amino)pyrrolidine-1-sulfonamide]	–	–	490	202	–	–	–	> 30000	–	–
–	CCNS(=O)(=O)N1CC[C@H](Nc2nc(N[C@@H](CC)[C@H](C)O)nc3c2ncn3CC)C1 [Example 8, (S)—N-ethyl-3-((9-ethyl-2-(((2S,3S)-2-hydroxypentan-3-yl)amino)-9H-purin-6-yl)amino)pyrrolidine-1-sulfonamide]	–	–	4770	1580	–	–	–	> 30000	–	–
> 30000	CC[C@H](Nc1nc(N[C@H]2CCN(S(=O)(=O)N[C@H]3CCOC3)C2)c2ncn(CC)c2n1)[C@@H](C)O [Example 22, (S)-3-((9-ethyl-2-(((2R,3S)-2-hydroxypentan-3-yl)amino)-9H-purin-6-yl)amino)-N—((S)-tetrahydrofuran-3-yl)pyrrolidine-1-sulfonamide]	–	> 1000	1440	298	–	–	–	–	–	–

Structure (SMILES)	IC50 ([1]; MCF-7 cells, 2 hours) [nM]	IC50 [2] [nM]	solubility at 24 h [3] [µM]	IC50 (MCF-7 cells; EdU assay, two days) [nM]	IC50 (OVCAR3 cells; EdU assay, two days) [nM]	IC50 (CDK2:CCNE1) [nM]	IC50 (CDK4:CCND1) [nM]	IC50 (CDK1:CCNB1) [nM]	IC50 [1] [nM]	IC50 (MCF-7 cells) [nM]	IC50 (OVCAR3 cells) [nM]
CC[C@H](Nc1nc(N[C@H]2CCN(S(=O)(=O)NCC(F)(F)F)C2)c2ncn(CC)c2n1)[C@@H](C)O [Example 4, (S)-3-((9-ethyl-2-(((2R,3S)-2-hydroxypentan-3-yl)amino)-9H-purin-6-yl)amino)-N-(2,2,2-trifluoroethyl)pyrrolidine-1-sulfonamide]	> 30000	164	57 (≈ 28.2 µg/mL)	685	294	–	–	–	–	–	–
CC[C@H](Nc1nc(N[C@H]2CCN(S(=O)(=O)NC)C2)c2ncn(CC)c2n1)C(C)=O [Example 45, (S)-3-((9-ethyl-2-(((S)-2-oxopentan-3-yl)amino)-9H-purin-6-yl)-amino)-N-methylpyrrolidine-1-sulfonamide]	> 26700	–	–	944	359	39	> 29700	1890	–	–	–
CC[C@H](Nc1nc(N[C@H]2CCN(S(=O)(=O)NC)C2)c2ncn(C(F)F)c2n1)[C@@H](C)O [Example 55, (S)-3-((9-(difluoromethyl)-2-(((2R,3S)-2-hydroxypentan-3-yl)amino)-9H-purin-6-yl)amino)-N-methylpyrrolidine-1-sulfonamide]	14400	142	> 1000	514	147	–	–	–	–	–	–
